The values below come from patent US8703697B2, “Method for treating early severe diffuse acute respiratory distress syndrome” (priority 2011, dated 2014).

The subject of one assay is severe diffuse ARDS. Kind of assay: Case observation: ARDS patient sedated with clonidine under spontaneous ventilation-pressure support and high PEEP. Type of assay: in vivo, human.
A further assay has as its system sedation. To be noted: continuous infusion for sedation; cited from earlier work.

On to `Clc1cccc(Cl)c1N=C1NCCN1` [clonidine], for which the “P/F (PaO2/FiO2)” value with severe diffuse ARDS (human, in vivo) is 262. In addition, the Ramsay score in the assay on severe diffuse ARDS (under clonidine 1 μg·kg-1·h-1, progressively lowered from Ramsay 5-6, patient communicated with family on D5) is on record as 2-3. For `CC(CCc1ccc(O)cc1)NCCc1ccc(O)c(O)c1` (centres unmarked) [dobutamine], the “Superior vena cava O2 saturation” value with severe diffuse ARDS (at all intervals, dobutamine D3 to D6, 2 then 1 μg·kg-1·min-1) was over 70%. Regarding `Cc1cccc([C@H](C)c2cnc[nH]2)c1C` [dexmedetomidine], the “dosage at which ceiling effect is observed” value in the assay with sedation is 1.5 µg/kg/h. On to `NC[C@H](O)c1ccc(O)c(O)c1` [noradrenaline], for which the mean arterial pressure in the assay on severe diffuse ARDS (noradrenaline 0.45 μg·kg-1·min-1 lowered to 0.01 μg·kg-1·min-1, forced diuresis) is reported as over 100 mm Hg.
